#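 Interpolation was linear, between the two tested concentrations surrounding the appropriate level; five concentrations were tested over 48 hours in 96-well plates. TGI marks complete inhibition of growth.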
# Columns and labels:
# Assay in all cases: DTP human tumour cell line panel, 48 h
# CAKI-1 renal = test system: CAKI-1 renal
# HCT-116 colon = test system: HCT-116 colon
# HT29 colon = test system: HT29 colon
# MDA-MB-231 breast = test system: MDA-MB-231 breast
# NCI-H522 lung = test system: NCI-H522 lung
# OVCAR-3 ovarian = test system: OVCAR-3 ovarian
# SN12C renal = test system: SN12C renal
# SW-620 colon = test system: SW-620 colon
Structure (SMILES),TGI (CAKI-1 renal),TGI (HCT-116 colon),TGI (HT29 colon),TGI (MDA-MB-231 breast),TGI (NCI-H522 lung),TGI (OVCAR-3 ovarian),TGI (SN12C renal),TGI (SW-620 colon)
O=C(Nc1ccc(Cl)cc1)c1cc(S(=O)(=O)Nc2n[nH]c(Nc3ccc4ccccc4c3)n2)c(SSc2cc(Cl)c(C(=O)Nc3ccc(Cl)cc3)cc2S(=O)(=O)Nc2n[nH]c(Nc3ccc4ccccc4c3)n2)cc1Cl,38 µM,39.5 µM,38.2 µM,46.5 µM,50.8 µM,59.5 µM,59.2 µM,49.8 µM
O=c1[nH]c2cccc([N+](=O)[O-])c2c(=O)n1-c1ccc(Cl)cc1,19.5 µM,61.7 µM,26.1 µM,34.3 µM,,23.5 µM,33.9 µM,27.1 µM
O=[N+]([O-])/C(C(Cl)=C(Cl)Cl)=C1\Nc2ccc([N+](=O)[O-])cc2N1,> 100 µM,> 100 µM,,> 100 µM,63 µM,> 100 µM,> 100 µM,
CN1CCCC2C(c3ccccc3)C(C3=NCCCC3)C(c3ccccc3)CC21 (configuration not stated),> 100 µM,> 100 µM,67.6 µM,> 100 µM,54.5 µM,> 100 µM,> 100 µM,> 100 µM
Cn1c(-c2cccs2)cc(-c2cccs2)c1-c1cccs1,> 100 µM,> 100 µM,> 100 µM,> 100 µM,> 93.5 µM,> 100 µM,> 100 µM,> 100 µM
C[C@]12CCC(O)CC1=CC[C@@H]1[C@@H]2CC[C@]2(C)C(O)[C@H](n3ccnc3)C[C@@H]12 (some centres not stated),> 100 µM,> 100 µM,> 100 µM,> 100 µM,> 100 µM,> 100 µM,> 100 µM,> 100 µM
COc1ccc(NC(=S)Nc2cc(C)ccn2)cc1,> 100 µM,> 100 µM,> 100 µM,> 100 µM,,,,> 100 µM
O=S(=O)(O)CCSSCCS(=O)(=O)O,> 1000 µM,> 1000 µM,> 1000 µM,> 1000 µM,> 1000 µM,> 1000 µM,> 1000 µM,> 1000 µM
CC[C@]12C=CCN3CC[C@@]4(c5cc(Br)c(OC)c([N+](=O)[O-])c5N(C)[C@H]4[C@@](O)(C(=O)OC)[C@@H]1OC(C)=O)[C@@H]32,> 100 µM,> 100 µM,> 100 µM,> 100 µM,,> 100 µM,> 100 µM,> 100 µM
Cc1cn(C2OC(CO[Si](C)(C)C(C)(C)C)/C(=C\C#N)C2O[Si](C)(C)C(C)(C)C)c(=O)[nH]c1=O (configuration not stated),> 100 µM,> 100 µM,> 100 µM,> 100 µM,,> 100 µM,> 100 µM,> 100 µM
O=C1CC(Br)c2c(Br)sc(Br)c21 (configuration not stated),38.8 µM,26.4 µM,30.4 µM,35.1 µM,24.4 µM,32.9 µM,29 µM,26.5 µM
CC(=O)O[C@H]1C(=O)[C@@]2(C)[C@H]([C@H](OC(=O)c3ccccc3)[C@]3(O)C[C@H](OC(=O)[C@H](O)[C@@H](NC(=O)c4ccc(N)cc4)c4ccccc4)C(C)=C1C3(C)C)[C@]1(OC(C)=O)CO[C@@H]1C[C@@H]2O,> 50 µM,> 50 µM,,> 50 µM,> 50 µM,0.0224 µM,,> 50 µM
Cc1cc(S(=O)(=O)Nc2nc(N)nc(N3N=CCC3C)n2)c(SCC(=O)O)cc1Cl (configuration not stated),> 10 µM,> 10 µM,> 10 µM,> 10 µM,> 10 µM,> 10 µM,> 10 µM,> 10 µM
CC(=O)OCC1OC(NC(=S)Nn2c(=O)[nH]c3ccccc3c2=O)C(OC(C)=O)C(OC(C)=O)C1OC(C)=O (configuration not stated),> 100 µM,> 100 µM,> 100 µM,> 100 µM,> 100 µM,> 100 µM,> 100 µM,> 100 µM
COc1cc2c(/C=C3/C(=O)Nc4ccc(O)cc43)c(Cl)n(Cc3ccccc3)c2cc1C,19.2 µM,1.91 µM,3.96 µM,42 µM,,0.704 µM,> 45.3 µM,19.9 µM
OCC1OC(NC(=S)NCCC(F)(F)C(F)(F)C(F)(F)C(F)(F)C(F)(F)C(F)(F)F)C(O)C(O)C1O (configuration not stated),> 100 µM,> 100 µM,> 100 µM,> 100 µM,,> 100 µM,> 100 µM,> 100 µM
COC(=O)C1C2OC(C)(C)OC2CN1S(=O)(=O)c1ccc(C)cc1 (configuration not stated),> 100 µM,> 100 µM,> 100 µM,> 100 µM,> 100 µM,> 100 µM,> 100 µM,> 100 µM
Cc1nc(N)c(N2CCN(S(N)(=O)=O)CC2)c(=O)[nH]1,,> 100 µM,> 100 µM,> 100 µM,> 100 µM,> 100 µM,> 100 µM,> 100 µM
CCCCCCCCCCCCCCCCP(=O)(O)OCC(N)C(=O)O (configuration not stated),56.2 µM,48.9 µM,> 100 µM,82.7 µM,42.8 µM,79.3 µM,> 100 µM,> 100 µM
CN(CCC(=O)N1CC(CCl)c2ccc([N+](=O)[O-])cc21)CCC(=O)N1CC(CCl)c2ccc([N+](=O)[O-])cc21 (configuration not stated),48 µM,26.1 µM,24 µM,44.5 µM,21.7 µM,23.7 µM,41.1 µM,29 µM
CCOC(=O)/C=C/CC(C)(C)COC(C)=O,,> 10 µM,,> 10 µM,> 10 µM,> 10 µM,> 10 µM,> 10 µM
C1C2CC3CC1CC(c1nn4c(C56CC7CC(CC(C7)C5)C6)nnc4s1)(C2)C3,> 100 µM,> 100 µM,> 100 µM,> 100 µM,> 100 µM,> 100 µM,> 100 µM,> 100 µM
COc1cc(C(=O)NNC(=O)c2cc(Br)ccc2NC(=O)c2cccs2)cc(OC)c1OC,> 100 µM,51.5 µM,41.1 µM,,53.3 µM,> 100 µM,60.3 µM,> 100 µM
CC(=O)c1c(-c2ccc(Cl)cc2)c(-c2ccc(Cl)cc2)n[nH]c1=O,> 100 µM,> 100 µM,> 100 µM,86.4 µM,,79.8 µM,93.3 µM,> 100 µM
O=C(/C=C/c1cccc([N+](=O)[O-])c1)N1CCN(CCOC(c2ccccc2)c2ccccc2)CC1,> 100 µM,51.8 µM,71.5 µM,,> 100 µM,> 100 µM,> 100 µM,> 100 µM

# From PubChem BioAssay (NCI)
